PMC5513037, “Examining the influence of specificity ligands and ATP-competitive ligands on the overall effectiveness of bivalent kinase inhibitors” (Proteome Science, 2017)

What was measured:
Assay in all cases: KAM-matrix competition in K562 lysate;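 on 0.001 uM KAM: median log10 fold change of treatment over DMSO control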;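 on 0.01 uM KAM: median log10 fold change of treatment over DMSO control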;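 on 0.1 uM KAM: median log10 fold change of treatment over DMSO control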;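 on 1 uM KAM: median log10 fold change of treatment over DMSO control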;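 on 10 uM KAM: median log10 fold change of treatment over DMSO control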
Format in all cases: binding
TNK1 = biological target: T1, TNK1 (Homo sapiens, UniProt Q13470)
T1 construct: endogenous in cells; host or cells: K562
T1 sequence (Q13470 1-666): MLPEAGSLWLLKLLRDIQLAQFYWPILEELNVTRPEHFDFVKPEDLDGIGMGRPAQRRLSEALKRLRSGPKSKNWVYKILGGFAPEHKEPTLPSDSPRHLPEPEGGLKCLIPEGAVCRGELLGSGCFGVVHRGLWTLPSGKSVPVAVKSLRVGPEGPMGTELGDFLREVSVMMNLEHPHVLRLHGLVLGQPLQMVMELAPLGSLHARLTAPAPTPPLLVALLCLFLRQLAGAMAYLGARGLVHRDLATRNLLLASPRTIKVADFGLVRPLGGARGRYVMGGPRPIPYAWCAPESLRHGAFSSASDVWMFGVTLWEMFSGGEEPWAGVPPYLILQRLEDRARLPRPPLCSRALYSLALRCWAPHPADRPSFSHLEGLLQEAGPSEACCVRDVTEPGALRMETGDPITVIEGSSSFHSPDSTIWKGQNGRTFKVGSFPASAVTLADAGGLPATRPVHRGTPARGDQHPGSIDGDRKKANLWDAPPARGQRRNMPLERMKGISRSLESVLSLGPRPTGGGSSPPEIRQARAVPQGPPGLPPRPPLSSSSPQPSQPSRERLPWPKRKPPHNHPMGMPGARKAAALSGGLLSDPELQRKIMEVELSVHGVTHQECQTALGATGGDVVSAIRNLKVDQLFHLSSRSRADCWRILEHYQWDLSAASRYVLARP
Experimental: (§1) Supplement 12953_2017_125_MOESM1_ESM.zip/MS_Supp Info.xlsx, sheet "KAM" | column: 10 uM KAM; 1 uM KAM; 0.1 uM KAM; 0.01 uM KAM; 0.001 uM KAM; RB50

ADRBK1 = biological target: T2, ADRBK1 (Homo sapiens, UniProt P25098);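 on 0.001 uM KAM: median log10 fold change of treatment over DMSO control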;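 on 0.01 uM KAM: median log10 fold change of treatment over DMSO control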;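 on 0.1 uM KAM: median log10 fold change of treatment over DMSO control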;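 on 1 uM KAM: median log10 fold change of treatment over DMSO control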;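 on 10 uM KAM: median log10 fold change of treatment over DMSO control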
T2 construct: endogenous in cells; host or cells: K562
T2 sequence (P25098 1-689): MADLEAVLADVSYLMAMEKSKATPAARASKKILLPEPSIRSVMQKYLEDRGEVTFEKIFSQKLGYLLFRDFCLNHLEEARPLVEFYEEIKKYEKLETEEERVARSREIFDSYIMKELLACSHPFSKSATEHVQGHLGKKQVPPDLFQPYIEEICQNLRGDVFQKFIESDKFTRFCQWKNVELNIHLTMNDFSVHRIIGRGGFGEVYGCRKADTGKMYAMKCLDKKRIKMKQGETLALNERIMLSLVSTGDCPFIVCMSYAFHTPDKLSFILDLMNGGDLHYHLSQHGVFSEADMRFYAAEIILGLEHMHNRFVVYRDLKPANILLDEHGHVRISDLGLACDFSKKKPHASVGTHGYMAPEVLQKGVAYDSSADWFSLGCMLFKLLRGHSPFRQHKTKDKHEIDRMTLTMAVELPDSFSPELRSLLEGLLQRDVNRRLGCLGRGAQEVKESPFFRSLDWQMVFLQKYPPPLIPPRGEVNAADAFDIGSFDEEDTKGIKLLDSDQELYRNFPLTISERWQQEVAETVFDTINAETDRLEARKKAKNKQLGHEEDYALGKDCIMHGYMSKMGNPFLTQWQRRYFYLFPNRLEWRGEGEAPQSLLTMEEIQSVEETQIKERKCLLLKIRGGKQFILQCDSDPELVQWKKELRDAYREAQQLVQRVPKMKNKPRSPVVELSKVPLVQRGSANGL
Experimental: as §1

UHMK1 = biological target: T3, UHMK1 (Homo sapiens, UniProt Q8TAS1);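 on 0.001 uM KAM: median log10 fold change of treatment over DMSO control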;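 on 0.01 uM KAM: median log10 fold change of treatment over DMSO control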;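 on 0.1 uM KAM: median log10 fold change of treatment over DMSO control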;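 on 1 uM KAM: median log10 fold change of treatment over DMSO control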;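 on 10 uM KAM: median log10 fold change of treatment over DMSO control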
T3 construct: endogenous in cells; host or cells: K562
T3 sequence (Q8TAS1 1-419): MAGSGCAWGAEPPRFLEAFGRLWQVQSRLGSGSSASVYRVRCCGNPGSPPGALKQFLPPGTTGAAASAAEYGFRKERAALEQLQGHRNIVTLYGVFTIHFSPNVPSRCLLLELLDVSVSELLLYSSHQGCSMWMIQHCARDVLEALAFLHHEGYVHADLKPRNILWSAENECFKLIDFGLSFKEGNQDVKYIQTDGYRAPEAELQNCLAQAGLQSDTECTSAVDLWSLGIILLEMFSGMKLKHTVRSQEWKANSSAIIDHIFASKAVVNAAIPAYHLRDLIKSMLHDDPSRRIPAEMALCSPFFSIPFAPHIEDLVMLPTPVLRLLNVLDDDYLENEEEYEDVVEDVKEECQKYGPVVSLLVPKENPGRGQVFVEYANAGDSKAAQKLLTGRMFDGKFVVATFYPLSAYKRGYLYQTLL
Experimental: as §1

MAPK3 = biological target: T4, MAPK3 (Homo sapiens, UniProt P27361)
T4 construct: endogenous in cells; host or cells: K562
T4 sequence (P27361 whole entry): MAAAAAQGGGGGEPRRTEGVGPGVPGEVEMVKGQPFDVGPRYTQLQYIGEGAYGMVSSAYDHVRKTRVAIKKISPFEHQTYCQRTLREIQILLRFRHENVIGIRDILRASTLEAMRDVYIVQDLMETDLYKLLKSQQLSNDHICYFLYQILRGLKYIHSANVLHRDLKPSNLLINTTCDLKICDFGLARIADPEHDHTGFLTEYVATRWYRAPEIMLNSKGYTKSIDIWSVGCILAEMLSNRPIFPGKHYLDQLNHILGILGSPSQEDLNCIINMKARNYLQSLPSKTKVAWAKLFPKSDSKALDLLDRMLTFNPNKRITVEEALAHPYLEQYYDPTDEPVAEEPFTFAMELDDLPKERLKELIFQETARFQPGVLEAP
Experimental: as §1

BTK = biological target: T5, BTK (Homo sapiens, UniProt Q06187)
T5 construct: endogenous in cells; host or cells: K562
T5 sequence (Q06187 whole entry): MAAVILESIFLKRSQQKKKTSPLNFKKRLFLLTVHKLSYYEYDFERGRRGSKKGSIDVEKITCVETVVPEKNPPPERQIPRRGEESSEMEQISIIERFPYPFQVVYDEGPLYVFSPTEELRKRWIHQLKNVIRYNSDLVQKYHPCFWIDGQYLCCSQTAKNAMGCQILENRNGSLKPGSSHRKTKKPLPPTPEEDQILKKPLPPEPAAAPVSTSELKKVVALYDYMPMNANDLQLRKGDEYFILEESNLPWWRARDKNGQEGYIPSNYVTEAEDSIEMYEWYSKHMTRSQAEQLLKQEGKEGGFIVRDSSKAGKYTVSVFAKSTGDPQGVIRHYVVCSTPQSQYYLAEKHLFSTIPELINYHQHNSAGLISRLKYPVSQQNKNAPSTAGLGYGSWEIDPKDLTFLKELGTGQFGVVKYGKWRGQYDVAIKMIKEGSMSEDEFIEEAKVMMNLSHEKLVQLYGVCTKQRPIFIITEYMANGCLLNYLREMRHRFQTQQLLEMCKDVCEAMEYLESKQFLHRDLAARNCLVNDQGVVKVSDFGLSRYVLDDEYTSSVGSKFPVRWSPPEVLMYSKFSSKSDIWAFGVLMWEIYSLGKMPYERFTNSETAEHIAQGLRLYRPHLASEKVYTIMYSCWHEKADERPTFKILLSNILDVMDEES
Experimental: as §1

SIK3 = biological target: T6, SIK3 (Homo sapiens, UniProt Q9Y2K2);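 on 0.001 uM KAM: median log10 fold change of treatment over DMSO control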;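 on 0.01 uM KAM: median log10 fold change of treatment over DMSO control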;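 on 0.1 uM KAM: median log10 fold change of treatment over DMSO control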;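 on 1 uM KAM: median log10 fold change of treatment over DMSO control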;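 on 10 uM KAM: median log10 fold change of treatment over DMSO control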
T6 construct: endogenous in cells; host or cells: K562
T6 sequence (Q9Y2K2 whole entry): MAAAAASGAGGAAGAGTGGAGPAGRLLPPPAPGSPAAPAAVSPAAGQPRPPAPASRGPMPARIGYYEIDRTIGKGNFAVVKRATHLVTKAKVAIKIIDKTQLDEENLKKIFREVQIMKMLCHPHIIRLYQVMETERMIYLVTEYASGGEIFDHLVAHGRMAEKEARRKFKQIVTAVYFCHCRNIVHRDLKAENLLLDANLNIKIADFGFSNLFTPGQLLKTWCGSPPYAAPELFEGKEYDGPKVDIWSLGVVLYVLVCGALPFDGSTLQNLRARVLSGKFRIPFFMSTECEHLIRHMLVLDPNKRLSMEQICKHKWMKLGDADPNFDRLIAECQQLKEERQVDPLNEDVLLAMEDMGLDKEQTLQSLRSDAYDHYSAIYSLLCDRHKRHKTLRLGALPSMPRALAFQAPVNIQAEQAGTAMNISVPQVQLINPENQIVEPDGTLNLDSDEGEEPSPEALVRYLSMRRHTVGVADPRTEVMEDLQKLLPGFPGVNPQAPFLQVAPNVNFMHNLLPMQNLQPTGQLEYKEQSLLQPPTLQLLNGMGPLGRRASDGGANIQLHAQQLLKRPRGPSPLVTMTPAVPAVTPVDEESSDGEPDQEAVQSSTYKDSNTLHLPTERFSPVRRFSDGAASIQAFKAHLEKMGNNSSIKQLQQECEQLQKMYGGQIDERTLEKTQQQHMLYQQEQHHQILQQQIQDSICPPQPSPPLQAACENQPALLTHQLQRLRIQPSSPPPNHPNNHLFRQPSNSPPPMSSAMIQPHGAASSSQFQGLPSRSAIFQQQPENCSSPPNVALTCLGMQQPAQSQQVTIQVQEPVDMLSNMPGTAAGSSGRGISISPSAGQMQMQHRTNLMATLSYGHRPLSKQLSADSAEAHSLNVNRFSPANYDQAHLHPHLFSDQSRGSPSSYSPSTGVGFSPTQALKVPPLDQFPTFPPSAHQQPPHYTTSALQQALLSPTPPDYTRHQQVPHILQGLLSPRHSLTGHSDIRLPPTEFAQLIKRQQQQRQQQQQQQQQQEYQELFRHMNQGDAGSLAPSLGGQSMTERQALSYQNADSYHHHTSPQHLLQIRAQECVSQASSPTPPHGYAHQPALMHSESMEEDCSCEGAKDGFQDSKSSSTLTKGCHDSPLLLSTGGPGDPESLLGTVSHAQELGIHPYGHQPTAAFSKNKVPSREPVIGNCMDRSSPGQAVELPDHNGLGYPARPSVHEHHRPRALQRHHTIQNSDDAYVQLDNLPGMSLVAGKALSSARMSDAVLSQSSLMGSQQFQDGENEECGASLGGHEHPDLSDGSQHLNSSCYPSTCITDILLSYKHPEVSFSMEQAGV
Experimental: as §1

[1] = read-out: RB50 (the source's name)
[2] = KAM 0.001-10 uM, read-out: RB50 (the source's name)

## N#CCc1ccc(Nc2nc(NCCCN)cc(Nc3cc(C4CC4)[nH]n3)n2)cc1 [KAM]
TNK1; 0.001 uM KAM
  median Log10 fold change: -0.003814
TNK1; 0.01 uM KAM
  median Log10 fold change: -0.02527
TNK1; 0.1 uM KAM
  median Log10 fold change: -0.2865
TNK1; 1 uM KAM
  median Log10 fold change: -0.4389
TNK1; 10 uM KAM
  median Log10 fold change: -0.4693
TNK1; [1]
  IC50: 199 nM
ADRBK1; [2]
  IC50: > 10000 nM
ADRBK1; relative to 0 uM KAM = 0
  0.001 uM KAM: 0.02352
  0.01 uM KAM: 0.07327
  0.1 uM KAM: 0.03347
  1 uM KAM: 0.04428
  10 uM KAM: 0.02417
UHMK1; [2]
  IC50: > 10000 nM
UHMK1; relative to 0 uM KAM = 0
  0.001 uM KAM: -0.05175
  0.01 uM KAM: -0.019
  0.1 uM KAM: 0.009765
  1 uM KAM: -0.08212
  10 uM KAM: -0.08774
MAPK3; 0.001 uM KAM
  median Log10 fold change: -0.06334
MAPK3; 0.01 uM KAM
  median Log10 fold change: -0.0563
MAPK3; 0.1 uM KAM
  median Log10 fold change: -0.1467
MAPK3; 1 uM KAM
  median Log10 fold change: -0.2435
MAPK3; 10 uM KAM
  median Log10 fold change: -0.361
MAPK3; [1]
  IC50: 2360 nM
BTK; 0.001 uM KAM
  median Log10 fold change: -0.05218
BTK; 0.01 uM KAM
  median Log10 fold change: -0.04172
BTK; 0.1 uM KAM
  median Log10 fold change: -0.1708
BTK; 1 uM KAM
  median Log10 fold change: -0.3888
BTK; 10 uM KAM
  median Log10 fold change: -0.5091
BTK; [1]
  IC50: 566 nM
SIK3; [2]
  IC50: > 10000 nM
SIK3; relative to 0 uM KAM = 0
  0.001 uM KAM: -0.07223
  0.01 uM KAM: -0.0771
  0.1 uM KAM: -0.08847
  1 uM KAM: -0.01623
  10 uM KAM: -0.07209
